Measurements from ChEMBL document CHEMBL3044567, “Synthesis and biological evaluation of novel condensed pyrimidinylmethylsulfinylbenzimidazoles as antiulcer agent” (2013).

Columns and labels:
Assay type in all cases: functional, Stomach
Rattus norvegicus [1] = assay: Antiulcer activity in Wistar Rattus norvegicus (rat) assessed as decrease in total acidity of gastric secretions at 0.1158 mM/kg, po administered 1 hr prior to pylorous ligation measured after 19 hr by titRattus norvegicus (rat)ion assay relative to untreated control; set-up: scale not given: the % may be the effect or the level left
Rattus norvegicus [2] = assay: Antiulcer activity in Wistar Rattus norvegicus (rat) assessed as decrease in total acidity of gastric secretions at 0.0579 mM/kg, po administered 1 hr prior to pylorous ligation measured after 19 hr by titRattus norvegicus (rat)ion assay relative to untreated control; set-up: scale not given: the % may be the effect or the level left
Rattus norvegicus [3] = assay: Antiulcer activity in Wistar Rattus norvegicus (rat) assessed as decrease in total acidity of gastric secretions at 0.0289 mM/kg, po administered 1 hr prior to pylorous ligation measured after 19 hr by titRattus norvegicus (rat)ion assay relative to untreated control; set-up: scale not given: the % may be the effect or the level left
Rattus norvegicus [4] = assay: Antiulcer activity in Wistar Rattus norvegicus (rat) assessed as increase in pH of gastric secretions at 0.1158 mM/kg, po administered 1 hr prior to pylorous ligation measured after 19 hr by digital pH metric analysis relative to untreated control
Rattus norvegicus [5] = assay: Antiulcer activity in Wistar Rattus norvegicus (rat) assessed as increase in pH of gastric secretions at 0.0579 mM/kg, po administered 1 hr prior to pylorous ligation measured after 19 hr by digital pH metric analysis relative to untreated control
Rattus norvegicus [6] = assay: Antiulcer activity in Wistar Rattus norvegicus (rat) assessed as change in pH of gastric secretions at 0.0289 mM/kg, po administered 1 hr prior to pylorous ligation measured after 19 hr by digital pH metric analysis relative to untreated control
Rattus norvegicus [7] = assay: Antiulcer activity in Wistar Rattus norvegicus (rat) assessed as decrease in total volume of gastric secretions at 0.1158 mM/kg, po administered 1 hr prior to pylorous ligation measured after 19 hr relative to untreated control; set-up: scale not given: the % may be the effect or the level left
Rattus norvegicus [8] = assay: Antiulcer activity in Wistar Rattus norvegicus (rat) assessed as decrease in total volume of gastric secretions at 0.0579 mM/kg, po administered 1 hr prior to pylorous ligation measured after 19 hr relative to untreated control; set-up: scale not given: the % may be the effect or the level left
Rattus norvegicus [9] = assay: Antiulcer activity in Wistar Rattus norvegicus (rat) assessed as decrease in total volume of gastric secretions at 0.0289 mM/kg, po administered 1 hr prior to pylorous ligation measured after 19 hr relative to untreated control; set-up: scale not given: the % may be the effect or the level left

| Compound | Activity (Rattus norvegicus [1]) | Activity (Rattus norvegicus [2]) | Activity (Rattus norvegicus [3]) | Activity (Rattus norvegicus [4]) | Activity (Rattus norvegicus [5]) | Activity (Rattus norvegicus [6]) | Activity (Rattus norvegicus [7]) | Activity (Rattus norvegicus [8]) | Activity (Rattus norvegicus [9]) |
| --- | --- | --- | --- | --- | --- | --- | --- | --- | --- |
| [O-][S+](Cc1nc(OCC(F)(F)F)c2c(-c3ccccc3)csc2n1)c1nc2ccccc2[nH]1 (configuration not stated) | 45.37% | 26.18% | 16.93% | 8.09% | 0.1% | 3.69% | 50.53% | 45.21% | 49.46% |
| [O-][S+](Cc1nc(OCC(F)(F)F)c2c3c(sc2n1)CCCC3)c1nc2ccccc2[nH]1 (configuration not stated) | 52.14% | 38.14% | 27.08% | 14.13% | 6.28% | 5.45% | 34.57% | 29.78% | 60.1% |
| COc1ccc2[nH]c([S+]([O-])Cc3nc(OC)c4c(-c5ccc(Cl)cc5)csc4n3)nc2c1 (configuration not stated) | 37.92% | 22.12% | 5.41% | 3.048% | 2.25% | 5.41% | 55.58% | 43.88% | 28.19% |
| COc1nc(C[S+]([O-])c2nc3ccccc3[nH]2)nc2sc3c(c12)CCCC3 (configuration not stated) | 39.27% | 37.69% | 24.15% | 23.55% | 17.33% | 6.65% | 50% | 51.06% | 23.93% |
| COc1ccc2[nH]c([S+]([O-])Cc3nc(OC)c4c5c(sc4n3)CCCC5)nc2c1 (configuration not stated) | 50.33% | 33.86% | 29.57% | 10.33% | 9.05% | 1.44% | 57.71% | 77.39% | 69.94% |
| COc1nc(C[S+]([O-])c2nc3ccccc3[nH]2)nc2scc(-c3ccccc3)c12 (configuration not stated) | 36.79% | 25.28% | 23.92% | 9.91% | 6.19% | 0.72% | 72.34% | 61.96% | 70.74% |
| COc1ccc2[nH]c([S+]([O-])Cc3nc(Cl)c4c(-c5ccccc5)csc4n3)nc2c1 (configuration not stated) | 40.18% | 25.5% | 20.76% | 14.36% | 5.54% | 5.45% | 76.32% | 68.08% | 42.02% |
| COc1ccc2[nH]c([S+]([O-])Cc3nc(OC)c4c(-c5ccccc5)csc4n3)nc2c1 (configuration not stated) | 38.6% | 23.7% | 17.6% | 10.84% | 4.02% | 3.35% | 52.92% | 46.01% | 47.07% |
| [O-][S+](Cc1nc(OCC(F)(F)F)c2c(-c3ccc(Cl)cc3)csc2n1)c1nc2ccccc2[nH]1 (configuration not stated) | 52.82% | 41.76% | 22.34% | 32.86% | 17.97% | 2.03% | 60.37% | 50.26% | 43.08% |
| COc1ccc2[nH]c([S+]([O-])Cc3nc(Cl)c4c5c(sc4n3)CCCC5)nc2c1 (configuration not stated) | 48.08% | 41.76% | 24.37% | 20.03% | 11.99% | 5.07% | 59.84% | 53.98% | 44.41% |
| COc1nc(C[S+]([O-])c2nc3ccccc3[nH]2)nc2scc(-c3ccc(Cl)cc3)c12 (configuration not stated) | 51.46% | 42.43% | 32.05% | 23.31% | 11.17% | 8.96% | 69.68% | 58.24% | 52.65% |
| COc1ccc2[nH]c([S+]([O-])Cc3ncc(C)c(OC)c3C)nc2c1 (configuration not stated) [OMEPRAZOLE] | 71.55% | 56.65% | 49.66% | 62.67% | 55.79% | 50.9% | 73.93% | 63.55% | 53.72% |
| COc1ccc2[nH]c([S+]([O-])Cc3nc(Cl)c4c(-c5ccc(Cl)cc5)csc4n3)nc2c1 (configuration not stated) | 44.01% | 24.37% | 18.05% | 19.72% | 5.91% | 1.44% | 73.67% | 67.28% | 56.64% |
